Target: T1, PKB-PIF fusion protein (Homo sapiens, UniProt P31751)
T1 construct: made in house
Test: Measurement of PKB kinase inhibitory activity (IC50), radiometric filter plate assay
Format: biochemical
Details: 0.6 nM enzyme, 30 μM ATP, 25 μM AKTide-2T substrate, 20 minutes
Description: The reaction is allowed to proceed for 20 minutes before addition of excess orthophosphoric acid to quench activity. The reaction mixture is transferred to a phosphocellulose filter plate where the peptide binds and the unused ATP is washed away. After washing, scintillant is added and the incorporated activity measured by scintillation counting.

T1 sequence (P31751 with tags, fused parts or gaps limits assumed): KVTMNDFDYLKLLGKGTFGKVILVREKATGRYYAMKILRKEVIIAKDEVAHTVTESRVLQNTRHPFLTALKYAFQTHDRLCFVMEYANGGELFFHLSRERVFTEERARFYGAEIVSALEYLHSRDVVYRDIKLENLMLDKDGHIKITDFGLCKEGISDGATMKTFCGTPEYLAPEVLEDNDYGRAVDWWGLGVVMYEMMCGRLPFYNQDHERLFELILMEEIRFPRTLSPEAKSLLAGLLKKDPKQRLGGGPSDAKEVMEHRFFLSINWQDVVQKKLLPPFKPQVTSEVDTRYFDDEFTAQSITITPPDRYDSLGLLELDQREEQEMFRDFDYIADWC

Q: For `CNC[C@@H](c1ccc(Cl)cc1)c1ccc(-c2cn[nH]c2)cc1` [Example 22, {2-(4-Chloro-phenyl)-2-[4-(1H-pyrazol-4-yl)-phenyl]-ethyl}-methyl-amine (R)], which IC50 is on record?
A: < 1 µM

Q: With `CNCC(c1ccccc1)c1ccc(-c2c[nH]nc2C)nc1` (centres unmarked) [Example 60] as the compound, how does the IC50 read?
A: < 5 µM

From patent publication US9283226B2, “Pyrazole derivatives as protein kinase modulators” (Astex Therapeutics Ltd, priority 2003, dated 2016)
